Experimental data from patent EP3685668B1, “COMPOSITION COMPRISING ACIBENZOLAR-S-METHYL AS EFFECTIVE INGREDIENT FOR CONTROLLING BURSAPHELENCHUS XYLOPHILUS DISEASE AND METHOD FOR CONTROLLING BURSAPHELENCHUS XYLOPHILUS USING SAME” (Industry Foundation of Chonnam National University, priority 2017, dated 2019).

Experiments:
[1] = test system: Bursaphelenchus xylophilus; assay: Occurrence of pine wilt disease after trunk injection of induced resistance candidate materials, in vivo test in young red pine trees; details: red pine tree (Pinus densiflora), trunk injection 100 µℓ per tree, 30 days after inoculation
Description: By using the 15 types of an induced resistance elicitors which have been known to induce the plant resistance against various diseases as candidates, their controlling effect against pine wilt disease was examined. The control efficacy of candidates against pine wilt disease was analyzed according to an in vivo test using red pine tree (Pinus densiflora) which was 2-year old young pine trees (diameter of 5.5 mm or so, and height of about 35 mm).
As a candidate group of an induced resistance material, two kinds of acibenzolar-S-methyl (ASM), TDL (Tiadinil), ITL (Isotianil), PBZ (Probenzole), AZO (Azoxystrobin), VMA (Validamycin A), MeJA (Methyl jasmonate), BABA (DL-3-aminobutyric acid), 2,3-BDO (2,3-Butanediol), SA (salicyclic acid), GABA (r-Aminobutyric acid), glucan (Glucan), ER (Ergosterol), and AZA (Azelaic acid) were used. Only the use of acibenzolar-S-methyl is according to the invention. Injection of the chemicals was carried out by trunk injection method, i.e., at an angle of 45°, a borehole was created by using an electric drill with thickness of 1.5 mm on a pine stem part that is 5 to 10 cm above the soil surface, a tip (200 µℓ) was inserted to the hole, and, after dissolving the candidate material at concentration level of 200, 20, or 2 µg/mℓ in each solvent, the solution was injected in an amount of 100 µℓ per pine tree. After the injection of the chemical agent, the end part of the tip was sealed with parafilm.
The pine tree wilt nematodes (Bursaphelenchus xylophilus, National Institute of Forest Science (NIFoS), South Korea) was incubated at 25°C by feeding them with Botrytis cinerea, which have been cultured on a potato dextrose agar (PDA) medium, and after one week incubation, they were collected by Baermann funnel method and were adjusted to the level of 20,000 worms/mℓ by examining the number of the worms under an optical microscope. One week after the chemical treatment, the inoculation of the pine tree wilt nematodes was carried out by tree barking inoculation of 100 µℓ, i.e., 2,000 worms, per tree, and the result was determined 30 days after the inoculation. […] [Table 1] Occurrence rate of pine wilt disease in candidate group of induced resistance materials

[2] = test system: Bursaphelenchus xylophilus; assay: In vitro nematicidal activity, 96-well microplate; details: after 3 days
Description: To test the nematicidal activity of acibenzolar-S-methyl, a suspension of Bursaphelenchus xylophilus was diluted in a 96-well microplate to have 50 worms/99 µℓ in each well and used for the treatment. […] Each treatment was repeated 3 times, and "A Pharm" (emamectin benzoate, 2.15%), which is a chemical pesticide, was used as a control group. After the treatment, the 96-well plate was kept in a plastic box having water-soaked wipes spread on the bottom to maintain 100% humidity, and, after covering the box with black cloth, the box was stored in a dark state with blockage of light. The observation was made after 3 days. […] [Table 2] Nematicidal activity of acibenzolar-S-methyl against Bursaphelenchus xylophilus

[3] = test system: Bursaphelenchus xylophilus; assay: Control efficacy against pine wilt disease by trunk injection, foliar spraying or soil drenching, greenhouse, red pine trees; type: in vivo; details: red pine tree, observed for 80 days
Description: The control efficacy of acibenzolar-S-methyl, which shown to have the highest activity in Example 1, was determined by three different treatment methods, i.e., trunk injection, foliar spraying, and soil drenching. For in vivo pathogenesis test, 2-year old young red pine trees (diameter of 5.5 mm or so, and height of about 35 mm) were used like Example 2.
For the trunk injection, a borehole was created at an angle of 45° by using an electric drill with thickness of 1.5 mm on a pine stem part that is 5 to 10 cm above the soil surface, a tip (200 µℓ) was inserted to the hole, and the working solution of chemicals was injected in an amount of 100 µℓ per pine tree after dissolving acibenzolar-S-methyl at concentration of 0.2 or 10 mg/mℓ in an aqueous solution containing 10% acetone and 10% methanol. After the treatment, the end part of the tip was sealed with parafilm, and a small hole was created thereon as an airflow hole. For the foliar spraying, a pre-treatment with Tween 20 (250 µg/mℓ) was carried out at 5 mℓ per pine tree to help the adsorption of the chemical on pine leaves, followed by drying for 2 hours. After drying, acibenzolar-S-methyl was dissolved at concentration of 1.6 mg/mℓ in an aqueous solution containing 10% acetone and Tween 20 (250 µg/mℓ) and the dissolved solution was filled in microsprayer and was applied 5 mℓ per pine tree by foliar spraying. For the soil drenching, acibenzolar-S-methyl was dissolved at concentration level of 0.2 mg/mℓ in an aqueous solution containing 10% acetone and Tween 20 (250 µg/mℓ), and this solution was used for soil drenching in a pot with planted pine tree, 40 mℓ per pine tree. […] [Table 3] The control efficacy of acibenzolar-S-methyl against pine wilt disease by various treatment methods

[4] = test system: Bursaphelenchus xylophilus; assay: as above; type: in vivo; details: red pine tree, Trunk injection, 20,000 µg/mℓ, observed for 80 days
[5] = Foliar spraying, 1,600 µg/mℓ, 5 mℓ per tree
[6] = Soil drenching, 200 µg/mℓ, 40 mℓ per tree

Row | Compound | Occurrence rate of pine wilt disease: Number of pine trees showing wilt symptoms / Number of pine trees used for the test ([1]; 2 µg/mℓ) | Occurrence rate of pine wilt disease: Number of pine trees showing wilt symptoms / Number of pine trees used for the test ([1]; 20 µg/mℓ) | Occurrence rate of pine wilt disease: Number of pine trees showing wilt symptoms / Number of pine trees used for the test ([1]; 200 µg/mℓ) | Nematicidal rate (%) ([2]; 0.11 µg/mℓ) | Nematicidal rate (%) ([2]; 0.33 µg/mℓ) | Nematicidal rate (%) ([2]; 1 µg/mℓ) | Control value (%) [3, 5] [%] | Disease occurrence rate (%) [3, 5] [%] | Control value (%) ([3]; Foliar spraying, 1,600 µg/mℓ, 5 mℓ per tree, listed as emamectin benzoate) | Control value (%) [3, 6] [%] | Disease occurrence rate (%) [3, 6] [%] | Control value (%) ([3]; Soil drenching, 200 µg/mℓ, 40 mℓ per tree, listed as emamectin benzoate) | Control value (%) ([3]; Trunk injection, 200 µg/mℓ) | Disease occurrence rate (%) ([3]; Trunk injection, 200 µg/mℓ) | Control value (%) ([3]; Trunk injection, 200 µg/mℓ, listed as emamectin benzoate) | Control value (%) [4] [%] | Disease occurrence rate (%) [4] [%]
1 | O=C(O)c1ccccc1O [SA, salicyclic acid] | 2/3 | 1/3 | 0/3 |  |  |  |  |  |  |  |  |  |  |  |  |  | 
2 | emamectin benzoate |  |  |  | 98.77 | 100 | 100 | 10 | 64 | no control activity | 1 | 70 | no control activity | 7 | 66 | not shown at all | 100 | 0
